Source: US6875578B2, “System for cell-based screening” (priority 1997, dated 2005)
“Also recorded” adds a separate entry of the source.

Tests used:
Format in all cases: cell-based
[1] = system: BHK cells; experiment: Apoptosis nuclear morphology, BHK cells; details: 30 hours
Protocol: Cells were plated into 96-well plates at densities of 3×10^3 to 1×10^4 cells/well. The following day apoptotic inducers were added at indicated concentrations and cells were incubated for indicated time periods (usually 16-30 hours). The next day medium was removed and cells were stained with 5 μg/ml Hoechst (Molecular Probes, Inc.) in fresh medium and incubated for 30 minutes at 37° C. Cells were washed in Hank's Balanced Salt Solution (HBSS) and fixed with 3.7% formaldehyde in HBSS at room temperature. Cells were washed 2×with HBSS at room temperature and the plate was sealed.
Quantitation of changes in nuclear morphology upon induction of apoptosis was accomplished by (1) measuring the effective size of the nuclear region; and (2) measuring the degree of convolution of the perimeter.

[2] = system: BHK cells; experiment: Apoptosis actin reorganization (f-actin content), BHK cells; details: 30 hours
Protocol: Cells were plated in 96-well plates at densities of 3×10^3 to 1×10^4 cells/well. The following day apoptotic inducers were added at indicated concentrations. Cells were incubated for the indicated time periods (usually 16-30 hours). The next day the medium was removed and cells were stained with 5 μg/ml Hoechst (Molecular Probes, Inc.) in fresh medium and incubated for 30 minutes at […]. Cells were washed in HBSS and fixed with 3.7% formaldehyde in HBSS at room temperature. Plates were washed with HBSS and permeabilized with 0.5% v/v Triton X-100 in HBSS at room temperature. Plates were washed in HBSS and stained with 100 μl of 1 U/ml of Alexa 488 Phalloidin stock (100 μl/well, Molecular Probes, Inc.). Cells were washed 2×with HBSS at RT and the plate was sealed.
Quantitation of f-actin content was accomplished by measuring the intensity of phalloidin staining around the nucleus. This was determined to be a reasonable approximation of a full cytoplasmic average of the intensity. The mask used to approximate this cytoplasmic measure was derived from the nuclear mask defined by the Hoechst stain. Derivation was accomplished by combinations of erosions and dilations.

[3] = system: BHK cells; experiment: Apoptosis mitochondrial mass/potential, BHK cells; details: 30 hours
Protocol: Cells were plated into 96-well plates at densities of 3×10^3 to 1×10^4 cells/well. The following day apoptotic inducers were added at the indicated concentrations and cells were incubated for the indicated time periods (usually 16-30 hours). Cells were stained with 5 μg/ml Hoechst (Molecular Probes, Inc.) and 750 nM MITOTRACKER™ Red (CMXRos, Molecular Probes, Inc.) in fresh medium and incubated for 30 minutes at 37° C. Cells were washed in HBSS and fixed with 3.7% formaldehyde in HBSS at room temperature. Plates were washed with HBSS and permeabilized with 0.5% v/v TRITON™ X-100 in HBSS at room temperature. Cells were washed 2× with HBSS at room temperature and the plate was sealed. For dual labeling of mitochondria, cells were treated with 200 nM MITOTRACKER™ Green and 200 nM MITOTRACKER™ Red for 0.5 hours before fixation.
The mitochondrial membrane potential is measured by labeling mitochondria with both MITOTRACKER™ Green FM and MITOTRACKER™ Red (Molecular Probes, mc). MITOTRACKER™ Red labeling is proportional to both mass and membrane potential. MITOTRACKER™ Green FM labeling is proportional to mass. The ratio of MITOTRACKER™ Red signal to the MITOTRACKER™ Green FM signal provides a measure of mitochondrial membrane potential (Poot and Pierce, 1999). This ratio normalizes the […]. […]

[4] = system: caspase-3; experiment: Caspase-3 biosensor apoptosis assay, MCF-7 cells; details: MCF-7 cells transfected with the caspase 3 biosensor
Protocol: (§1) For DNA transfection, BHK cells and MCF-7 cells were cultured to 50-70% confluence in 6 well plates containing 3 ml of minimal Eagle's medium (MEM) with 10% fetal calf serum, 1 mM L-glutamine, 50 μg/ml streptomycin, 50 μg/ml penicillin, 0.1 mM non-essential amino acids, 1 mM sodium pyruvate and 10 μg/ml of bovine insulin (for MCF-7 cell only) at 37° C. in a 5% CO2 incubator for about 36 hours. The cells were washed with serum free MEM media and incubated for 5 hours with 1 ml of transfection mixture containing 1 μg of the appropriate plasmid and 4 μg of lipofectimine (BRL) in the serum free MEM media. Subsequently, the transfection medium was removed and replaced with 3 ml of normal culture media. The transfected cells were maintained in growth medium for at least 16 hours before performing selection of the stable cells based on standard molecular biology methods (Ausubel. et al 1995).
For apoptosis assays, the cells (BHK, MCF-7) stably transfected with the appropriate protease biosensor expression vector were plated on tissue culture treated 96-well plates at 50-60% confluence and cultured overnight at 37° C., 5% CO2. Varying concentrations of cis-platin, staurosporine, or paclitaxel in normal culture media were freshly prepared from stock and added to cell culture dishes to replace the old culture media. The cells were then observed with the cell screening system of the present invention at the indicated time points either as live cell experiments or as fixed end-point experiments.
This biosensor is restricted to the cytoplasm by the reactant target sequence. The reactant target sequence is the annexin II cytoskeletal binding domain ([…]) (SEQ ID NO:124) (FIG. 29C) (Eberhard et al. 1997. Mol. Biol. Cell 8:293a). The enzyme recognition site corresponds to two copies of the amino acid sequence DEVD (SEQ ID NO:60) (FIG. 29B), which serves as the recognition site of caspase-3. […]
(§2) The biosensor response is measured by quantitating the effective cytoplasm-to-nuclear translocation of the signal (see above). […]

[5] = system: caspase-3; experiment: Caspase-3 biosensor apoptosis assay, BHK cells; details: BHK cells transfected with the caspase 3 biosensor
Protocol: as §1
For apoptosis assays, the cells (BHK, MCF-7) stably transfected with the appropriate protease biosensor expression vector were plated on tissue culture treated 96-well plates at 50-60% confluence and cultured overnight at 37° C., 5% CO2. […]
as §2

CC(=O)O[C@H]1C(=O)[C@@]2(C)[C@H]([C@H](OC(=O)c3ccccc3)[C@]3(O)C[C@H](OC(=O)[C@H](O)[C@@H](NC(=O)c4ccccc4)c4ccccc4)C(C)=C1C3(C)C)[C@]1(OC(C)=O)CO[C@@H]1C[C@@H]2O [paclitaxel]
change in nuclear morphology [1]: consistent increase in nuclear fragmentation with increasing concentrations; also recorded: a more classical response
change in peri-nuclear f-actin content [2]: results that are more variable
change in peri-nuclear f-actin content ([2]; listed as Paclitaxel): highly variable
mitochondrial changes (mass / membrane potential) [3]: consistent increases in mitochondrial mass
caspase activation reported by the biosensor [4]: stimulated
caspase activation reported by the biosensor [5]: stimulated
